# Test results published in paper PMC12670164, “In vitro and clinical data demonstrate negligible risk of drug–drug interactions with opelconazole, a novel inhaled antifungal agent” (Journal of Antimicrobial Chemotherapy, 2025).
# Where two headings read alike, the source gives them in different places.
# Legend:
# CYP3A4 [1] = molecular target: CYP3A4 (Homo sapiens, UniProt P08684); type: in vitro ADME; settings: incubated with 0.01 and 0.1 µM opelconazole
# Method: The testing of opelconazole as a potential substrate of CYP1A2, 2B6, 2C8, 2C9, 2C19, 2D6 and 3A4 was determined in vitro using recombinant CYP enzymes. Two concentrations of opelconazole (0.01 and 0.1 µM) were tested with each of the seven CYPs.
# The relative contributions of CYP3A4 and CYP2C9 were ∼75% and 25%, respectively, when incubated with 0.01 and 0.1 µM opelconazole.
# CYP3A4 [2] = system: CYP3A4
# Method: The potential for opelconazole to act as an inducer of CYP isoforms CYP1A2, CYP2B6 and CYP3A4 was assessed in vitro using an mRNA endpoint across three donors in cryopreserved human hepatocytes.
# A cytotoxicity assessment using MTT was performed in one of the three donors used for the induction studies prior to dosing.
# [3] = system: cryopreserved human hepatocytes; assay: MTT cytotoxicity assessment in hepatocytes; type: cell-based; settings: up to 3 μM, one donor
# Method: The hepatocyte cells were dosed with opelconazole (0.012, 0.03, 0.12, 0.3, 1.2 and 3 μM) and positive control compounds (omeprazole for CYP1A2 and rifampicin for CYP3A4).
# [4] = system: OAT1, OAT3, OCT1, OCT2, OATP1B1, OATP1B3, MATE-1, MATE2-K, P-gp, BCRP, BSEP; assay: Opelconazole as substrate of carrier transporters; type: in vitro ADME, human; settings: 0.5 and 5 μM; MDCKII, HEK293 cells, BSEP sf9 vesicles
# Method: Human transporter protein interactions with opelconazole as a potential substrate and/or inhibitor were assessed for the following key carrier transporters: organic anion transporters, OAT1 and OAT3; organic cation transporters, OCT1 and OCT2; OATP1B1 and OATP1B3; multidrug and toxin extrusion, MATE-1 and MATE2-K; key ATP-binding cassette (ABC) transporters including P-gp, breast cancer resistance protein (BCRP) and bile salt export pump (BSEP). Two concentrations of opelconazole, 0.5 and 5 μM, were tested using MDCKII cells, human embryonic kidney 293 cells and BSEP-transfected sf9 membrane vesicles and then analysed by LC-tandem MS to determine transporter inhibition and whether opelconazole was a transporter substrate. The viability of experimental test systems was confirmed with controls and known probe substrates and probe inhibitors.
# [5] = set-up: method as in PMID 33340279; settings: available PK data, cited from earlier work
# Chain of CYP3A4 (Homo sapiens, UniProt P08684) (P08684 whole entry): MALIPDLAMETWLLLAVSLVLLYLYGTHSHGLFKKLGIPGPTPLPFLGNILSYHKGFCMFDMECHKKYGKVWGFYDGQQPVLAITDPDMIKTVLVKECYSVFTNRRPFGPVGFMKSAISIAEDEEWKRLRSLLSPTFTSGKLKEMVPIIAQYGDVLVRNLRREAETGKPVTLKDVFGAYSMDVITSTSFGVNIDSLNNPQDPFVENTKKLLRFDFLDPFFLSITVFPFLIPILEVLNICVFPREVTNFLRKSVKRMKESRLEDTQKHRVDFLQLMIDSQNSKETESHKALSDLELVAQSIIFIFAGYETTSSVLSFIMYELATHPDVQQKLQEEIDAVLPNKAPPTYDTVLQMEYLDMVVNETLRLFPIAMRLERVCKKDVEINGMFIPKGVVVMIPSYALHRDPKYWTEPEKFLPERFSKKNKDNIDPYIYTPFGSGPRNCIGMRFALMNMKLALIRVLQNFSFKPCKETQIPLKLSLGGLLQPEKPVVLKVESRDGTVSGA
structure (smiles),measurement,setting,value
Cc1cc(N2CCN(c3ccc(C(=O)Nc4ccc(F)cc4)cc3)CC2)ccc1OC[C@@H]1CO[C@@](Cn2cncn2)(c2ccc(F)cc2F)C1 [opelconazole],relative contribution of CYP3A4 to metabolism of opelconazole,CYP3A4 [1],~75%
same,CYP3A4 mRNA expression increase,"CYP3A4 [2]; donor 1, only at 0.3 μM, 72 h",2.17 fold
same,CYP3A4 mRNA expression increase,"CYP3A4 [2]; donors 2 and 3, any concentration (0.012–3 μM)",< 2 fold
same,cytotoxicity (MTT),[3],no cytotoxicity was observed
same,substrate of carrier transporters,[4],not a substrate
same,Cmax (low systemic exposure),[5],1 ng/mL
same,Cmax,[5]; read-out: Cmax (low systemic exposure),1.6 nM
